Literature values as cited in patent US20050158403A1, “Preparation of chinese herbal composite recipe used in horticulture” (priority 2004, published 2005).

Experiments:
E. Coli = details: 1% matrine; in vitro
B-streptococcus = details: 1% matrine; in vitro
Staphylococcus aureaus = details: 1% matrine; in vitro
Proteus = details: 1% matrine; in vitro
Shigella = details: 1% matrine; in vitro

## O=C1CCC[C@@H]2[C@H]3CCCN4CCC[C@@H](CN12)[C@@H]34 [matrine]
E. Coli
  bacteria inhibition effects: bacteria inhibition effects
B-streptococcus
  bacteria inhibition effects: bacteria inhibition effects
Staphylococcus aureaus
  bacteria inhibition effects: bacteria inhibition effects
Proteus
  bacteria inhibition effects: bacteria inhibition effects
Shigella
  bacteria inhibition effects: bacteria inhibition effects

## CC[C@@H]1[C@H]2CCCCN3[C@H]2[C@H](C[C@H]3[C@@H]2C[C@H](C)C(=O)O2)[C@@H]2[C@H]1OC(=O)[C@H]2C [tuberostemonine]
Ascarid
  effect on Ascarid: tuberostemonine can paralyze

## discorea saponin
bacteria
  effect to bacteria: but no effect to bacteria.
